Experimental data from patent publication US20240277799A1, “Translational Activators, Including Methods of Discovery and Uses Thereof” (The Board of Trustees of the Leland Stanford Junior …, priority 2023, published 2024).

Assays:
[1] = tested on: A459 cells transfected with a control siRNA (siCTRL); assay: global protein synthesis in control cells (siCTRL); type: cell-based; settings: siCTRL cells with normal global synthesis; FIGS. 4A-4D
Protocol: FIGS. 2A-2D provide data and a schematic of an example of a screening method to discover and/or identify translational activators. In this example, cells with decreased global protein synthesis via small interfering RNA (siRNA) knockdown of an RP are cultured within a multi-well format. Each well of cultured cells is contacted with a compound and then examined for global protein synthesis. Compounds that increased global protein synthesis were considered a putative translational activator for further examination. To begin, cells are prepared (FIG. 2B). In some embodiments, cells having decreased global protein translation are cultured. It should be understood that any cells can be assessed and it is not required that the cells have decreased global protein translation, but cells with decreased global protein translation may improve identification of translational activators. […] If using a pooling strategy, hits can be further assessed to delineate which compound (or combination of compounds) yield the beneficial effect. Compounds can be assessed at a single concentration, or multiple concentrations. […] For high-throughput assessments, multiple cell cultures (e.g., multiple wells) can be assessed concurrently, each cell culture provided with the same conditions except for the compound (or concentration thereof) utilized to contact the cells of the culture. […]

[2] = tested on: A459 cells transfected with siRNA targeting RPL11 (siRPL11); assay: global protein synthesis in cells with insufficient global protein synthesis (siRPL11); type: cell-based; settings: FIGS. 4A-4D; for concentrations that increase protein synthesis, fold lower as compared to erythromycin: siRPL11 cells
Protocol: FIGS. 2A-2D provide data and a schematic of an example of a screening method to discover and/or identify translational activators. In this example, cells with decreased global protein synthesis via small interfering RNA (siRNA) knockdown of an RP are cultured within a multi-well format. Each well of cultured cells is contacted with a compound and then examined for global protein synthesis. Compounds that increased global protein synthesis were considered a putative translational activator for further examination.
To begin, cells are prepared (FIG. 2B). In some embodiments, cells having decreased global protein translation are cultured. It should be understood that any cells can be assessed and it is not required that the cells have decreased global protein translation, but cells with decreased global protein translation may improve identification of translational activators. In some embodiments, the cells are known to have a wild-type p53 sequence, which can reduce cofounding factors. Culturing of cells can be in plates, tubes, flasks, and/or any other appropriate container. High throughput methods can use multi-well plates (e.g., 96-well, 384-well, 1536-well, etc.) or any other means for dividing a cell culture into multiple populations.
In some embodiments, the cells that are cultured are manipulated to decrease global translation. In some embodiments, cells are manipulated by reducing expression of or inhibiting functionality of a ribosomal subunit. Examples of ribosomal subunits that can be targeted include (but are not limited to) RPL5, RPL11, RPS6, and RPS19, each of which are involved in various ribosomopathies. One method to reduce ribosomal subunit expression is knockdown via antisense and/or RNA interference (RNAi) technology. […] The example method within FIG. 2B utilizes reverse transfection in which double-stranded siRNA complexes are preformed and transfected into the cells, which are then cultured.
Upon preparing the cells, the cells are then treated with compounds (FIG. 2C). In some embodiments, cultured cells are contacted with a compound to assess their effect on global protein translation. […] If using a pooling strategy, hits can be further assessed to delineate which compound (or combination of compounds) yield the beneficial effect. Compounds can be assessed at a single concentration, or multiple concentrations. […] For high-throughput assessments, multiple cell cultures (e.g., multiple wells) can be assessed concurrently, each cell culture provided with the same conditions except for the compound (or concentration thereof) utilized to contact the cells of the culture.
After a period of incubating the cell culture with a compound, global protein production can be assessed (FIG. 2D). Any readout for measuring protein synthesis can be utilized. […]

[3] = cellular toxicity, relative total cell count against concentration; settings: at concentrations that improve protein synthesis; FIG. 5
Source text: Specifically, FIG. 5 illustrates relative total cell count is plotted against the concentration provided.

Row | Compound | increase of protein synthesis in control cells [1] | concentrations that increase protein synthesis, fold lower as compared to erythromycin [2] [fold] | ability to increase protein synthesis ([2]; siRPL11 cells having insufficient global protein synthesis) | cellular toxicity (relative total cell count) [3]
1 | CC[C@H]1OC(=O)[C@H](C)[C@@H](O[C@H]2C[C@@](C)(OC)[C@@H](O)[C@H](C)O2)[C@H](C)[C@@H](O[C@@H]2O[C@H](C)C[C@H](N(C)C)[C@H]2O)[C@](C)(O)C[C@@H](C)CN(C)[C@H](C)[C@@H](O)[C@]1(C)O [azithromycin] | increased protein synthesis in control cells | 10 | – | –
2 | CC[C@H]1OC(=O)[C@H](C)[C@@H](O[C@H]2C[C@@](C)(OC)[C@@H](O)[C@H](C)O2)[C@H](C)[C@@H](O[C@@H]2O[C@H](C)C[C@H](N(C)C)[C@H]2O)[C@](C)(O)C[C@@H](C)C(=O)[C@H](C)[C@@H](O)[C@]1(C)O [erythromycin] | – | – | increased protein synthesis at high concentrations | –
3 | CC[C@H]1OC(=O)[C@@](C)(F)C(=O)[C@H](C)[C@@H](O[C@@H]2O[C@H](C)C[C@H](N(C)C)[C@H]2O)[C@](C)(OC)C[C@@H](C)C(=O)[C@H](C)[C@H]2N(CCCCn3cc(-c4cccc(N)c4)nn3)C(=O)O[C@]12C [solithromycin] | – | 10 | – | little to no toxicity
4 | CC[C@H]1OC(=O)[C@H](C)C(=O)[C@H](C)[C@@H](O[C@@H]2O[C@H](C)C[C@H](N(C)C)[C@H]2O)[C@](C)(OC)C[C@@H](C)C(=O)[C@H](C)[C@H]2N(CCCCn3cnc(-c4cccnc4)c3)C(=O)O[C@]12C [telithromycin] | – | 10 | – | –
